Molecular target: JAK1 (Homo sapiens (Human), UniProt P23458)
Experiment: Jak biochemical HTRF assay, JAK1
Details: recombinant purified GST-tagged catalytic domain; HTRF format; [ATP] 31.8 μM
From the text: Jak Biochemical HTRF Assay Protocol
Subsequent reagent additions employed an Agilent Bravo.

Sequence of JAK1 (P23458 875-1153): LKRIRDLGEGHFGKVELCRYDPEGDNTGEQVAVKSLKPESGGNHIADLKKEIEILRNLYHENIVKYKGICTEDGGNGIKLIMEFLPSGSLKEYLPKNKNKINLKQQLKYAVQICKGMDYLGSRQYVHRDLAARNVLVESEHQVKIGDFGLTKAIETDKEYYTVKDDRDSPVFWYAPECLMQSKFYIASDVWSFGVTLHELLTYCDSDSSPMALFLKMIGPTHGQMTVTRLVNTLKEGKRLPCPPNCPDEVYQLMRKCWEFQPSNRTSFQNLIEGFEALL

Structure (SMILES) | IC50 [nM]
COC1CC(CN2CC[C@@H](C#N)[C@H](n3cc(C(N)=O)c(Nc4ccc(F)cc4)n3)C2)C1 (mixture of isomers) [Example 6-9, 1-{(3S,4R and 3R,4S)-4-cyano-1-[(3-methoxycyclobutyl)methyl]piperidin-3-yl}-3-[(4-fluorophenyl)amino]-1H-pyrazole-4-carboxamide] | 16
N#C[C@@H]1CCN(Cc2cccnc2F)C[C@H]1n1cc(C(N)=O)c(Nc2ccc(F)cc2)n1 (racemic) [Example 6-17, 1-{(3S,4R and 3R,4S)-4-cyano-1-[(2-fluoropyridin-3-yl)methyl]piperidin-3-yl}-3-[(4-fluorophenyl)amino]-1H-pyrazole-4-carboxamide] | 1
Cc1ncc(CN2CC[C@@H](C#N)[C@H](n3cc(C(N)=O)c(Nc4ccc(F)cc4)n3)C2)s1 (racemic) [Example 6-18, 1-{(3S,4R and 3R,4S)-4-cyano-1-[(2-methyl-1,3-thiazol-5-yl)methyl]piperidin-3-yl}-3-[(4-fluorophenyl)amino]-1H-pyrdzole-4-carboxamide] | 1
N#C[C@@H]1CN(Cc2cocn2)CC[C@H]1n1cc(C(N)=O)c(Nc2ccc(F)cc2)n1 (racemic) [Example 6-25, 1-[(3R,4R and 3S,4S)-3-cyano-1-(1,3-oxazol-4-ylmethyl)piperidin-4-yl]-3-[(4-fluorophenyl)amino]-1H-pyrazole-4-carboxamide] | 6
Cn1ccc(CN2CC[C@@H](n3cc(C(N)=O)c(Nc4ccc(F)cc4)n3)[C@H](C#N)C2)n1 (racemic) [Example 6-26, 1-{(3R,4R and 3S,4S)-3-cyano-1-[(1-methyl-1H-pyrazol-3-yl)methyl]piperidin-4-yl}-3-[(4-fluorophenyl)amino]-1H-pyrazole-4-carboxamide] | 17
N#C[C@@H]1CN(Cc2cncc(F)c2)CC[C@H]1n1cc(C(N)=O)c(Nc2ccc(F)cc2)n1 (racemic) [Example 6-28, 1-{(3R,4R and 3S,4S)-3-cyano-1-[(5-fluoropyridin-3-yl)methyl]piperidin-4-yl}-3-[(4-fluorophenyl)amino]-1H-pyrazole-4-carboxamide] | 6
COC1CC(CN2CC[C@@H](n3cc(C(N)=O)c(Nc4ccc(F)cc4)n3)[C@H](C#N)C2)C1 (mixture of isomers) [Example 6-30, 1-{(3R,4R and 3S,4S)-3-cyano-1-[(3-methoxycyclobutyl)methyl]piperidin-4-yl}-3-[(4-fluorophenyl)amino]-1H-pyrazole-4-carboxamide] | 16
N#C[C@@H]1CN(CCC2CCOCC2)CC[C@H]1n1cc(C(N)=O)c(Nc2ccc(F)cc2)n1 (racemic) [Example 6-31, 1-{(3R,4R and 3S,4S)-3-cyano-1-[2-(tetrahydro-2H-pyran-4-yl)ethyl]piperidin-4-yl}-3-[(4-fluorophenyl)amino]-1H-pyrazole-4-carboxamide] | 23
N#C[C@@H]1CN(Cc2cccc(F)n2)CC[C@H]1n1cc(C(N)=O)c(Nc2ccc(F)cc2)n1 (racemic) [Example 6-36, 1-{(3R,4R and 3S,4S)-3-cyano-1-[(6-fluoropyridin-2-yl)methyl]piperidin-4-yl}-3-[(4-fluorophenyl)amino]-1H-pyrazole-4-carboxamide] | 2
CC1=NOC(CN2CC[C@@H](n3cc(C(N)=O)c(Nc4ccc(F)cc4)n3)[C@H](C#N)C2)C1 (mixture of isomers) [Example 6-39, 1-{(3R,4R and 3S,4S)-3-cyano-1-[(3-methyl-4,5-dihydroisoxazol-5-yl)methyl]piperidin-4-yl}-3-[(4-fluorophenyl)amino]-1H-pyrazole-4-carboxamide] | 4
N#C[C@@H]1CCN(Cc2cncs2)C[C@H]1n1cc(C(N)=O)c(Nc2ccc(F)cc2)n1 (racemic) [Example 7-1, 1-[(3S,4R and 3R,4S)-4-Cyano-1-(1,3-thiazol-5-ylmethyl)piperidin-3-yl]-3-[(4-fluorophenyl)amino]-1H-pyrazole-4-carboxamide] | 0.5

From patent US9394282B2, “Pyrazole carboxamides as Janus kinase inhibitors” (Merck Sharp & Dohme Corp., priority 2011, dated 2016)
